According to ChEMBL document CHEMBL1671662, “In vitro activities of telavancin and six comparator agents against anaerobic bacterial isolates” (2009):

What was measured:
Format in all cases: functional
Odoribacter splanchnicus = assay: Antibacterial activity against Bacteroides splanchnicus by CLSI M11-A6 agar dilution method
Clostridium hathewayi = assay: Antibacterial activity against Clostridium hathewayi by CLSI M11-A6 agar dilution method; settings: Hungatella hathewayi
Hoylesella loescheii = assay: Antibacterial activity against Prevotella loescheii by CLSI M11-A6 agar dilution method
Flavonifractor plautii = assay: Antibacterial activity against Clostridium orbiscindens by CLSI M11-A6 agar dilution method
Clostridium perfringens = assay: Antibacterial activity against Clostridium perfringens by CLSI M11-A6 agar dilution method
Holdemania filiformis = assay: Antibacterial activity against Holdemania filiformis by CLSI M11-A6 agar dilution method
Bacteroides fragilis = assay: Antibacterial activity against Bacteroides fragilis by CLSI M11-A6 agar dilution method
Ruminococcus albus = assay: Antibacterial activity against Ruminococcus albus by CLSI M11-A6 agar dilution method; settings: Hominimerdicola alba
[1] = system: Clostridium paraputrificum; assay: Antibacterial activity against Clostridium paraputrificum by CLSI M11-A6 agar dilution method
Prevotella nigrescens = assay: Antibacterial activity against Prevotella nigrescens by CLSI M11-A6 agar dilution method
Prevotella intermedia [2] = assay: Antibacterial activity against Prevotella P intermedia by CLSI M11-A6 agar dilution method
Clostridioides difficile = assay: Antibacterial activity against Clostridium difficile by CLSI M11-A6 agar dilution method
[3] = system: Propionibacterium propionicum; assay: Antibacterial activity against Propionibacterium propionicus by CLSI M11-A6 agar dilution method; settings: Arachnia propionica
[4] = system: Paraclostridium bifermentans; assay: Antibacterial activity against Clostridium bifermentans by CLSI M11-A6 agar dilution method
Clostridium butyricum = assay: Antibacterial activity against Clostridium butyricum by CLSI M11-A6 agar dilution method
Fusobacterium varium = assay: Antibacterial activity against Fusobacterium varium by CLSI M11-A6 agar dilution method
Ruminococcus sp. = assay: Antibacterial activity against Ruminococcus sp. by CLSI M11-A6 agar dilution method
Prevotella intermedia [5] = assay: Antibacterial activity against Prevotella intermedia by CLSI M11-A6 agar dilution method
Prevotella disiens = assay: Antibacterial activity against Prevotella P disiens by CLSI M11-A6 agar dilution method
Thomasclavelia ramosa = assay: Antibacterial activity against Clostridium ramosum by CLSI M11-A6 agar dilution method
Blautia producta = assay: Antibacterial activity against Ruminococcus productus by CLSI M11-A6 agar dilution method
Collinsella aerofaciens = assay: Antibacterial activity against Colinsella aerofaciens by CLSI M11-A6 agar dilution method
[6] = system: Peptoniphilus asaccharolyticus; assay: Antibacterial activity against Peptoniphilus asaccharolyticus by CLSI M11-A6 agar dilution method
[7] = system: Prevotella melaninogenica; assay: Antibacterial activity against Prevotella melaninogenica by CLSI M11-A6 agar dilution method
[8] = system: Peptostreptococcus anaerobius; assay: Antibacterial activity against Peptostreptococcus anaerobius by CLSI M11-A6 agar dilution method
Clostridium bolteae = assay: Antibacterial activity against Clostridium bolteae by CLSI M11-A6 agar dilution method; settings: Enterocloster bolteae
Parvimonas micra = assay: Antibacterial activity against Peptostreptococcus micros by CLSI M11-A6 agar dilution method
Prevotella bivia = assay: Antibacterial activity against Prevotella bivia by CLSI M11-A6 agar dilution method
[9] = system: Streptococcus constellatus; assay: Antibacterial activity against Streptococcus constellatus by CLSI M11-A6 agar dilution method
[10] = system: Clostridium celerecrescens; assay: Antibacterial activity against Clostridium celerecrescens by CLSI M11-A6 agar dilution method; settings: Lacrimispora celerecrescens
Eggerthella lenta = assay: Antibacterial activity against Eggerthella lenta by CLSI M11-A6 agar dilution method
Bacteroides ovatus = assay: Antibacterial activity against Bacteroides ovatus by CLSI M11-A6 agar dilution method
Clostridium sporogenes = assay: Antibacterial activity against Clostridium sporogenes by CLSI M11-A6 agar dilution method
Clostridium tertium = assay: Antibacterial activity against Clostridium tertium by CLSI M11-A6 agar dilution method
[11] = system: Sutterella wadsworthensis; assay: Antibacterial activity against Sutterella wadsworthensis by CLSI M11-A6 agar dilution method
Prevotella oris = assay: Antibacterial activity against Prevotella oris by CLSI M11-A6 agar dilution method; settings: Segatella oris
[12] = system: Streptococcus intermedius; assay: Antibacterial activity against Streptococcus intermedius by CLSI M11-A6 agar dilution method
Phocaeicola vulgatus = assay: Antibacterial activity against Bacteroides vulgatus by CLSI M11-A6 agar dilution method
Clostridium = assay: Antibacterial activity against Clostridium hypermegas by CLSI M11-A6 agar dilution method

CCC[C@@H]1C[C@@H](C(=O)N[C@@H]([C@H]2O[C@H](SC)[C@H](O)[C@@H](O)[C@H]2O)[C@H](C)Cl)N(C)C1 [CLINDAMYCIN]
> 128 µg/mL: MIC90 (Odoribacter splanchnicus) | MIC90 (Bacteroides fragilis) | MIC90 (Ruminococcus sp.) | MIC90 [6] | MIC90 [8] | MIC90 (Parvimonas micra) | MIC90 (Bacteroides ovatus) | MIC50 (Phocaeicola vulgatus) | MIC90 (Phocaeicola vulgatus)
1 µg/mL: MIC90 (Holdemania filiformis) | MIC90 [3] | MIC50 (Fusobacterium varium) | MIC90 (Collinsella aerofaciens) | MIC90 (Eggerthella lenta)
4 µg/mL: MIC90 (Flavonifractor plautii) | MIC90 [1] | MIC50 (Clostridioides difficile) | MIC90 [4] | MIC90 (Clostridium butyricum) | MIC50 (Thomasclavelia ramosa) | MIC90 (Clostridium bolteae) | MIC90 [10] | MIC90 (Clostridium sporogenes) | MIC90 (Clostridium tertium)
8 µg/mL: MIC90 (Thomasclavelia ramosa)
32 µg/mL: MIC90 (Fusobacterium varium)
0.5 µg/mL: MIC50 (Clostridium hathewayi) | MIC50 (Clostridium perfringens) | MIC50 (Bacteroides fragilis) | MIC90 [9] | MIC90 [12]
2 µg/mL: MIC90 (Clostridium hathewayi) | MIC90 (Clostridium perfringens) | MIC90 (Ruminococcus albus) | MIC90 (Blautia producta) | MIC50 (Clostridium bolteae) | MIC50 (Bacteroides ovatus)
≤ 0.12 µg/mL: MIC50 (Odoribacter splanchnicus) | MIC (Hoylesella loescheii) | MIC50 (Hoylesella loescheii) | MIC90 (Hoylesella loescheii) | MIC50 (Holdemania filiformis) | MIC50 (Ruminococcus albus) | MIC (Prevotella nigrescens) | MIC50 (Prevotella nigrescens) | MIC90 (Prevotella nigrescens) | MIC (Prevotella intermedia [2]) | MIC50 (Prevotella intermedia [2]) | MIC90 (Prevotella intermedia [2]) | MIC50 [3] | MIC (Prevotella intermedia [5]) | MIC50 (Prevotella intermedia [5]) | MIC90 (Prevotella intermedia [5]) | MIC (Prevotella disiens) | MIC50 (Prevotella disiens) | MIC90 (Prevotella disiens) | MIC50 (Blautia producta) | MIC50 (Collinsella aerofaciens) | MIC [7] | MIC50 [7] | MIC90 [7] | MIC (Prevotella bivia) | MIC50 (Prevotella bivia) | MIC90 (Prevotella bivia) | MIC50 (Eggerthella lenta) | MIC (Prevotella oris) | MIC50 (Prevotella oris) | MIC90 (Prevotella oris)
16 µg/mL: MIC50 [11]
128 µg/mL: MIC90 (Clostridioides difficile) | MIC90 [11]

CC(=O)NC[C@H]1CN(c2ccc(N3CCOCC3)c(F)c2)C(=O)O1 [LINEZOLID]
16 µg/mL: MIC90 (Clostridioides difficile)
2 µg/mL: MIC (Odoribacter splanchnicus) | MIC50 (Odoribacter splanchnicus) | MIC50 (Clostridium hathewayi) | MIC50 (Hoylesella loescheii) | MIC90 (Hoylesella loescheii) | MIC50 (Flavonifractor plautii) | MIC50 (Clostridium perfringens) | MIC90 (Clostridium perfringens) | MIC50 (Ruminococcus albus) | MIC50 [1] | MIC50 (Clostridium) | MIC50 (Prevotella nigrescens) | MIC90 (Prevotella nigrescens) | MIC50 (Prevotella intermedia [2]) | MIC90 (Prevotella intermedia [2]) | MIC50 (Clostridioides difficile) | MIC50 [4] | MIC50 (Clostridium butyricum) | MIC90 (Ruminococcus sp.) | MIC50 (Prevotella intermedia [5]) | MIC90 (Prevotella intermedia [5]) | MIC50 (Prevotella disiens) | MIC90 (Prevotella disiens) | MIC50 (Blautia producta) | MIC90 [6] | MIC50 [7] | MIC90 [7] | MIC90 [8] | MIC90 (Parvimonas micra) | MIC50 (Prevotella bivia) | MIC90 (Prevotella bivia) | MIC50 [9] | MIC50 [10] | MIC50 (Clostridium sporogenes) | MIC50 (Clostridium tertium) | MIC50 (Prevotella oris) | MIC90 (Prevotella oris) | MIC50 [12] | MIC50 (Phocaeicola vulgatus)
4 µg/mL: MIC90 (Odoribacter splanchnicus) | MIC90 (Clostridium hathewayi) | MIC90 (Flavonifractor plautii) | MIC (Bacteroides fragilis) | MIC50 (Bacteroides fragilis) | MIC90 (Ruminococcus albus) | MIC90 [1] | MIC90 (Clostridium) | MIC90 [4] | MIC90 (Clostridium butyricum) | MIC90 (Blautia producta) | MIC50 (Clostridium bolteae) | MIC90 (Clostridium bolteae) | MIC90 [9] | MIC90 [10] | MIC50 (Bacteroides ovatus) | MIC90 (Bacteroides ovatus) | MIC90 (Clostridium sporogenes) | MIC90 (Clostridium tertium) | MIC90 [12] | MIC90 (Phocaeicola vulgatus)
8 µg/mL: MIC90 (Holdemania filiformis) | MIC90 (Bacteroides fragilis) | MIC90 [3] | MIC50 (Thomasclavelia ramosa) | MIC90 (Thomasclavelia ramosa) | MIC90 (Collinsella aerofaciens) | MIC90 (Eggerthella lenta)
1 µg/mL: MIC50 (Holdemania filiformis) | MIC50 [3] | MIC50 (Fusobacterium varium) | MIC90 (Fusobacterium varium) | MIC50 (Ruminococcus sp.) | MIC50 (Collinsella aerofaciens) | MIC50 [6] | MIC50 [8] | MIC50 (Parvimonas micra) | MIC50 (Eggerthella lenta)
> 128 µg/mL: MIC [11] | MIC50 [11] | MIC90 [11]
